Experiments:
Assay in all cases: Dynamic Shake Flask (based on ASTM E 2149-01) on treated nonwoven
Format in all cases: cell-based
[1] = test system: S. aureus (ATCC 6538); settings: Table 12
[2] = test system: P. aeruginosa (ATCC 9027); settings: Table 13
Description: (§1) The test organisms are grown in 25 mL appropriate broth medium for about 24±2 hours at 37±2° C. in a wrist action shaker. The bacterial culture is then transferred by placing about 100 μL aliquot in 25 mL of broth and grown again for about 24±2 hours at 37±2° C. The organisms are then centrifuged and washed three times with phosphate buffered saline (PBS). The organisms are then suspended in PBS to obtain an inoculum of approximately 1×10^8 CFU/mL.
(§2) The test articles and control swatches are exposed to an ultraviolet light source for about 5-10 minutes per side before testing to assure that the swatches are sanitized prior to inoculation with the bacteria. The test materials are brought into contact with a known population of test bacteria from the inoculum for a specified period of time. A sample is then plated at the end of the exposure time to enumerate the surviving bacteria. The log10 reduction form the control material and the original population is calculated using the following formula: Log10 Control*−Log10 CFU/swatch Test Article=Log10 Reduction
[…] This buffer solution contains a chemical to de-activate or “neutralize” the antimicrobial agent to (a) stop the active agent from killing the organisms after the designated time period and (b) to prevent artifacts that may arise from exposing the microorganisms to the antimicrobial in solution rather than solely on the substrate. Because each chemical used as an antimicrobial agent is a little different (ie: cationic, nonionic, metal, etc), a different neutralizer was likely added in each case to shut off the antimicrobial at the desired end point of the experiment. […] The neutralizer employed may be selected from a list that is commonly used in the field. […] Testing Mat.

[3] = test system: A. Niger (ATCC 16404); settings: Table 14, Spunbond
Description: as §1, §2
[…] This buffer solution contains a chemical to de-activate or “neutralize” the antimicrobial agent to (a) stop the active agent from killing the organisms after the designated time period and (b) to prevent artifacts that may arise from exposing the microorganisms to the antimicrobial in solution rather than solely on the substrate. Because each chemical used as an antimicrobial agent is a little different (ie: cationic, nonionic, metal, etc), a different neutralizer was likely added in each case to shut off the antimicrobial at the desired end point of the experiment. […] The neutralizer employed may be selected from a list that is commonly used in the field. These include, non-ionic degtergents, Bisulphate, lecithin, leethen broth, thiosulfate, thioglycolate, and pH buffers, Method similar to those described in American Society for Testing and Materials, Standard Practices for Evaluating Inactivators of Antimicrobial Agents Used in Disinfectant, Sanitizer, Antiseptic, or Preserved Products, Amer. Soc. Testing Mat. E 1054-91 (1991) can be used.

[4] = test system: C. Albicans (ATCC 10231); settings: Table 15, SMS

Substance	Dynamic Shake Flask Log10 Reduction ([1]; Meltblown, contact time 1 min)	Dynamic Shake Flask Log10 Reduction ([1]; Meltblown, contact time 5 min)	Dynamic Shake Flask Log10 Reduction ([1]; Meltblown, contact time 15 min)	Dynamic Shake Flask Log10 Reduction ([1]; SMS, contact time 1 min)	Dynamic Shake Flask Log10 Reduction ([1]; SMS, contact time 5 min)	Dynamic Shake Flask Log10 Reduction ([1]; SMS, contact time 15 min)	Dynamic Shake Flask Log10 Reduction ([1]; Spunbond, contact time 1 min)	Dynamic Shake Flask Log10 Reduction ([1]; Spunbond, contact time 5 min)	Dynamic Shake Flask Log10 Reduction ([1]; Spunbond, contact time 15 min)	Dynamic Shake Flask Log10 Reduction ([2]; Meltblown, contact time 1 min)	Dynamic Shake Flask Log10 Reduction ([2]; Meltblown, contact time 5 min)	Dynamic Shake Flask Log10 Reduction ([2]; Meltblown, contact time 15 min)	Dynamic Shake Flask Log10 Reduction ([2]; SMS, contact time 1 min)	Dynamic Shake Flask Log10 Reduction ([2]; SMS, contact time 5 min)	Dynamic Shake Flask Log10 Reduction ([2]; SMS, contact time 15 min)	Dynamic Shake Flask Log10 Reduction ([2]; Spunbond, contact time 1 min)	Dynamic Shake Flask Log10 Reduction ([2]; Spunbond, contact time 5 min)	Dynamic Shake Flask Log10 Reduction ([2]; Spunbond, contact time 15 min)	Dynamic Shake Flask Log10 Reduction ([3]; contact time 1 min)	Dynamic Shake Flask Log10 Reduction ([3]; contact time 5 min)	also measured
N-Alkyl Polyglycoside [1.0% Alkyl Polyglycoside]	2.97 Log10	4 Log10	4 Log10	0 Log10	0 Log10	0 Log10	0 Log10	0 Log10	0 Log10	2.38 Log10	4 Log10	4 Log10	0.37 Log10	0.37 Log10	0.36 Log10	0.61 Log10	0.41 Log10	0.41 Log10	0.64 Log10	0.53 Log10	Dynamic Shake Flask Log10 Reduction ([3]; contact time 15 min): 0.50 Log10; Dynamic Shake Flask Log10 Reduction ([4]; contact time 1 min): 0.59 Log10; Dynamic Shake Flask Log10 Reduction ([4]; contact time 5 min): 0.08 Log10; Dynamic Shake Flask Log10 Reduction ([4]; contact time 15 min): 0.19 Log10
Chitosan glycolate [1.0% Chitosan]	0.26 Log10	0.21 Log10	0.25 Log10	0.03 Log10	0.57 Log10	1.03 Log10	0 Log10	0.64 Log10	2.05 Log10	0.5 Log10	0.62 Log10	0.61 Log10	0.81 Log10	4 Log10	4 Log10	0.47 Log10	2.16 Log10	4 Log10	0.11 Log10	0.27 Log10	Dynamic Shake Flask Log10 Reduction ([3]; contact time 15 min): 0.31 Log10; Dynamic Shake Flask Log10 Reduction ([4]; contact time 1 min): 0.04 Log10; Dynamic Shake Flask Log10 Reduction ([4]; contact time 5 min): 0.13 Log10; Dynamic Shake Flask Log10 Reduction ([4]; contact time 15 min): 1 Log10
PG-Hydroxyethylcellulose Cocodimonium Chloride	0.09 Log10	0.2 Log10	0.44 Log10	1.38 Log10	2.97 Log10	4 Log10	0.33 Log10	0.63 Log10	1.74 Log10	0.34 Log10	0.35 Log10	0.42 Log10	4 Log10	4 Log10	4 Log10	4 Log10	4 Log10	4 Log10	0.00 Log10	0.01 Log10	Dynamic Shake Flask Log10 Reduction ([3]; contact time 15 min): 0.07 Log10; Dynamic Shake Flask Log10 Reduction ([4]; contact time 1 min): 1.25 Log10; Dynamic Shake Flask Log10 Reduction ([4]; contact time 5 min): 2.12 Log10; Dynamic Shake Flask Log10 Reduction ([4]; contact time 15 min): 2.56 Log10

From US20070048356A1, “Antimicrobial treatment of nonwoven materials for infection control” (priority 2005, published 2007)
